Among the data in patent US20230089867A1, “CYCLIC PENTAMER COMPOUNDS AS PROPROTEIN CONVERTASE SUBTILISIN/KEXIN TYPE 9 (PCSK9) INHIBITORS FOR THE TREATMENT OF METABOLIC DISORDER” (Novartis AG, priority 2018, published 2023) are Max % inhibition and IC50 values, retold here.

For the assay, the target named is human PCSK9 (Homo sapiens, UniProt Q8NBP7). As to the kind of experiment: PCSK9 ligand binding TR-FRET assay (interference with binding of human PCSK9 to human LDLR). The settings on record: for Max % inhibition: PCSK9 FRET assay, efficacy (Amax), 100% = 1 uM unlabeled human PCSK9, 0% = DMSO; for IC50: TR-FRET, human PCSK9 Alexa Fluor 647 / human LDLR extracellular domain-Europium Kryptate, read-out: PCSK9 FRET Assay IC50. In a few lines: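 Threefold compound dilutions were pre-incubated 30 min with PCSK9, after which 4 nM Europium Kryptate-tagged human LDLR ectodomain was added for a further 2 h.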
Chain of human PCSK9 (Q8NBP7 153-692): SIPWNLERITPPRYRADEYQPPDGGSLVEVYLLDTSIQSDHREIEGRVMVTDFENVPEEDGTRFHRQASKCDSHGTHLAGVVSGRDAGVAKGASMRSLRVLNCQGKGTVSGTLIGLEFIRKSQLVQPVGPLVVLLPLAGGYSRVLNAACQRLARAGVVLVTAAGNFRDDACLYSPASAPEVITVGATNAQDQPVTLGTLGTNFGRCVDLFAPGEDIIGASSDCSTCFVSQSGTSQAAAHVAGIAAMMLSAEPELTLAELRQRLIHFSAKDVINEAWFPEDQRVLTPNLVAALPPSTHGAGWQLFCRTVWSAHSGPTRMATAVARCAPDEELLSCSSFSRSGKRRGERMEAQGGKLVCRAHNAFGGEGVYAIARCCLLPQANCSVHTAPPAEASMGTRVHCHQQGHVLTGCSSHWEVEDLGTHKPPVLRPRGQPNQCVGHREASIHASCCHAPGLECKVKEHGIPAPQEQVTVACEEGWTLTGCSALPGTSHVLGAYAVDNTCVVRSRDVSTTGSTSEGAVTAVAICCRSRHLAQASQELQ
Chain of human PCSK9 (Q8NBP7 31-152 partner limits assumed): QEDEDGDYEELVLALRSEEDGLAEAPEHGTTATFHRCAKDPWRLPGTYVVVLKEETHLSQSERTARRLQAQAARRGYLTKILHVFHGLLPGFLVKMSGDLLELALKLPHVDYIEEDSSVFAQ
In general terms: Time-resolved FRET reads energy transfer from a long-lived donor to a nearby acceptor.

In the case of `COC[C@@H]1NC(=O)[C@H](CCN2CCOCC2)N(Cc2ccc(Cl)cc2Oc2ccc(-c3cnc(CN(C)C)n3C)cc2)C(=O)C[C@@H](Cc2ccccc2)C(=O)N(C)[C@@H](C)[C@H](C)NC(=O)C[C@H](Cc2ccc(Cl)cc2)N(C)C1=O` [Compound 94, (2S,5S,8S,12S,13S,16R)-16-benzyl-1-(4-chloro-2-(4-(2-((dimethylamino)methyl)-1-methyl-1H-imidazol-5-yl)phenoxy)benzyl)-8-(4-chlorobenzyl)-5-(methoxymethyl)-7,12,13,14-tetramethyl-2-(2-morpholinoethyl)-1,4,7,11,14-pentaazacyclooctadecane-3,6,10,15,18-pentaone], the Max % inhibition is on record as 104.90% and the IC50 stood at 2.4 nM.
On the same counts, the results for `COC[C@@H]1NC(=O)[C@H](CCC(=O)N2CC3(COC3)C2)N(Cc2ccc(Cl)cc2Oc2ccc(-c3cnc(CN(C)C)n3C)cc2)C(=O)C[C@@H](Cc2ccccc2)C(=O)N(C)[C@@H](C)CNC(=O)C[C@H](Cc2ccc(Cl)cc2)N(C)C1=O` [Compound 95, (2S,5S,8S,13S,16R)-16-benzyl-1-(4-chloro-2-(4-(2-((dimethylamino)methyl)-1-methyl-1H-imidazol-5-yl)phenoxy)benzyl)-8-(4-chlorobenzyl)-5-(methoxymethyl)-7,13,14-trimethyl-2-(3-oxo-3-(2-oxa-6-azaspiro[3.3]heptan-6-yl)propyl)-1,4,7,11,14-pentaazacyclooctadecane-3,6,10,15,18-pentaone] are 104.58% and 0.8 nM.
Taken in the same sequence, the figures for `COC[C@@H]1NC(=O)[C@H](C)N(Cc2ccc(Cl)cc2Oc2ccc(-c3cnc(CN(C)C)n3C)cc2)C(=O)C[C@@H](CC(F)=C(F)F)C(=O)N(C)[C@H]2CCCC[C@@H]2NC(=O)C[C@H](Cc2ccc(Cl)cc2)N(C)C1=O` [Compound 96, (4S,7S,10S,14S,16aS,20aS)-11-(4-chloro-2-(4-(2-((dimethylamino)methyl)-1-methyl-1H-imidazol-5-yl)phenoxy)benzyl)-4-(4-chlorobenzyl)-7-(methoxymethyl)-5,10,16-trimethyl-14-(2,3,3-trifluoroallyl)hexadecahydrobenzo[l][1,4,7,11,14]pentaazacyclooctadecine-2,6,9,12,15(3H)-pentaone] were 78.14% and 304 nM.
On the same counts, the results for `COC[C@@H]1NC(=O)[C@H](CC(F)F)N(Cc2ccc(Cl)cc2Oc2ccc(-c3cnc(CN4CCCC4)n3C)cc2)C(=O)C[C@@H](Cc2ccccc2)C(=O)N(C)[C@@H](C)CNC(=O)C[C@H](Cc2ccc(Cl)cc2)N(C)C1=O` [Compound 97, (2S,5S,8S,13S,16R)-16-benzyl-1-(4-chloro-2-(4-(1-methyl-2-(pyrrolidin-1-ylmethyl)-1H-imidazol-5-yl)phenoxy)benzyl)-8-(4-chlorobenzyl)-2-(2,2-difluoroethyl)-5-(methoxymethyl)-7,13,14-trimethyl-1,4,7,11,14-pentaazacyclooctadecane-3,6,10,15,18-pentaone] are 90.83% and 2.2 nM.
For the molecule `COC[C@@H]1NC(=O)[C@H](C)N(Cc2ccc(Cl)cc2Oc2ccc(-c3cnc(CN(C)C)n3C)cc2)C(=O)C[C@@H](Cc2cc(F)cc(F)c2F)C(=O)N(C)[C@@H](C)CNC(=O)C[C@H](Cc2ccc(Cl)cc2)N(C)C1=O` [Compound 98, (2S,5S,8S,13S,16R)-1-(4-chloro-2-(4-(2-((dimethylamino)methyl)-1-methyl-1H-imidazol-5-yl)phenoxy)benzyl)-8-(4-chlorobenzyl)-5-(methoxymethyl)-2,7,13,14-tetramethyl-16-(2,3,5-trifluorobenzyl)-1,4,7,11,14-pentaazacyclooctadecane-3,6,10,15,18-pentaone], the Max % inhibition worked out at 98.16% and the IC50 was 1.9 nM.
Taken in the same sequence, the figures for `COC[C@@H]1NC(=O)[C@H](C)N(Cc2ccc(Cl)cc2Oc2ccc(-c3cnc(CN(C)C)n3C)cc2)C(=O)C[C@@H](Cc2ccccc2C#N)C(=O)N(C)[C@@H](C)[C@H](C)NC(=O)C[C@H](Cc2ccc(Cl)cc2)N(C)C1=O` [Compound 99, 2-(((2S,5S,8S,12S,13S,16R)-1-(4-chloro-2-(4-(2-((dimethylamino)methyl)-1-methyl-1H-imidazol-5-yl)phenoxy)benzyl)-8-(4-chlorobenzyl)-5-(methoxymethyl)-2,7,12,13,14-pentamethyl-3,6,10,15,18-pentaoxo-1,4,7,11,14-pentaazacyclooctadecan-16-yl)methyl)benzonitrile] were 104.20% and 1.6 nM.
Taken in the same sequence, the figures for `COC[C@@H]1NC(=O)[C@H](C)N(Cc2ccc(Cl)cc2Oc2ccc(-c3cnc(CN(C)C)n3C)cc2)C(=O)C[C@@H](CC23CC(C2)C3)C(=O)N(C)[C@H]2CCCC[C@@H]2NC(=O)C[C@H](Cc2ccc(Cl)cc2)N(C)C1=O` [Compound 100, (4S,7S,10S,14R,16aS,20aS)-14-(bicyclo[1.1.1]pentan-1-ylmethyl)-11-(4-chloro-2-(4-(2-((dimethylamino)methyl)-1-methyl-1H-imidazol-5-yl)phenoxy)benzyl)-4-(4-chlorobenzyl)-7-(methoxymethyl)-5,10,16-trimethylhexadecahydrobenzo[l][1,4,7,11,14]pentaazacyclooctadecine-2,6,9,12,15(3H)-pentaone] were 105.41% and 5.4 nM.
`COC[C@@H]1NC(=O)[C@H](CCN2CCOCC2)N(Cc2ccc(Cl)cc2Oc2ccc(-c3cnc(CN(C)C)n3C)cc2)C(=O)C[C@@H](Cc2ccccc2)C(=O)N(C)[C@H]2CCCC[C@@H]2NC(=O)C[C@H](Cc2ccc(Cl)cc2)N(C)C1=O` [Compound 101, (4S,7S,10S,14R,16aS,20aS)-14-benzyl-11-(4-chloro-2-(4-(2-((dimethylamino)-methyl)-1-methyl-1H-imidazol-5-yl)phenoxy)benzyl)-4-(4-chlorobenzyl)-7-(methoxymethyl)-5,16-dimethyl-10-(2-morpholinoethyl)hexadecahydrobenzo-[l][1,4,7,11,14]pentaazacycloocta-decine-2,6,9,12,15(3H)-pentaone]: the Max % inhibition is recorded as 94.32% and the IC50 turned out to be 1.1 nM.
Regarding `COC[C@@H]1NC(=O)[C@H](C)N(Cc2ccc(C)cc2Oc2ccc(-c3cnc(CN(C)C)n3C)cc2)C(=O)C[C@@H](Cc2ccccc2)C(=O)N(C)[C@@H](C)[C@H](C)NC(=O)C[C@H](Cc2ccc(Cl)cc2)N(C)C1=O` [Compound 102, (2S,5S,8S,12S,13S,16R)-16-benzyl-8-(4-chlorobenzyl)-1-(2-(4-(2-((dimethylamino)methyl)-1-methyl-1H-imidazol-5-yl)phenoxy)-4-methylbenzyl)-5-(methoxymethyl)-2,7,12,13,14-pentamethyl-1,4,7,11,14-pentaazacyclooctadecane-3,6,10,15,18-pentaone], the Max % inhibition is 101.56% and the IC50 is 1.5 nM.
Turning to `COC[C@@H]1NC(=O)[C@H](C)N(Cc2ccc(Cl)cc2Oc2ccc(-c3cnc([C@@H](C)N(C)C)n3C)cc2)C(=O)C[C@@H](Cc2ccccc2)C(=O)N(C)[C@H]2CCCC[C@@H]2NC(=O)C[C@H](Cc2ccc(Cl)cc2)N(C)C1=O` [Compound 104, (4S,7S,10S,14R,16aS,20aS)-14-benzyl-11-(4-chloro-2-(4-(2-((R)-1-(dimethylamino)ethyl)-1-methyl-1H-imidazol-5-yl)phenoxy)benzyl)-4-(4-chlorobenzyl)-7-(methoxymethyl)-5,10,16-trimethylhexadecahydrobenzo[l][1,4,7,11,14]pentaazacyclooctadecine-2,6,9,12,15(3H)-pentaone], the Max % inhibition is recorded as 109.94% and the IC50 came to 1.4 nM.

Broadly, the IC50 is the concentration at which inhibition is half-maximal.
